# Measured values taken from patent publication US20240158446A1, “CYCLIC COMPOUND HAVING SELECTIVE INHIBITORY ACTION ON KRAS OVER HRAS AND NRAS” (CHUGAI SEIYAKU KABUSHIKI KAISHA, priority 2021, published 2024).
# pKd: −log10 of the molar value.
# What was measured:
# [1] = molecular target: GDP-bound KRAS wild-type protein (Homo sapiens, UniProt P01116); assay: Binding to KRAS by surface plasmon resonance (SPR), Single Cycle Kinetics; settings: SPR, Single Cycle Kinetics, GDP-bound KRAS wild-type protein; read-out: KRAS KD
# GDP-bound KRAS wild-type protein, sequence (P01116 whole entry): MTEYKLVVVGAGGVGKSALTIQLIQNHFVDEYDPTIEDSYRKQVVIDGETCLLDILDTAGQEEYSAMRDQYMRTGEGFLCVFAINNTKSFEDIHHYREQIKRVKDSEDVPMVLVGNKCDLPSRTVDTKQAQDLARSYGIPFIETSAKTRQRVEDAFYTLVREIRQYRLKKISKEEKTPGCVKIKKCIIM
# [2] = molecular target: GDP-bound NRAS wild-type protein (Homo sapiens, UniProt P01111); assay: Binding to NRAS by surface plasmon resonance (SPR), Single Cycle Kinetics; settings: SPR, GDP-bound NRAS wild-type protein vs GDP-bound KRAS wild-type protein
# GDP-bound NRAS wild-type protein, sequence (P01111 whole entry): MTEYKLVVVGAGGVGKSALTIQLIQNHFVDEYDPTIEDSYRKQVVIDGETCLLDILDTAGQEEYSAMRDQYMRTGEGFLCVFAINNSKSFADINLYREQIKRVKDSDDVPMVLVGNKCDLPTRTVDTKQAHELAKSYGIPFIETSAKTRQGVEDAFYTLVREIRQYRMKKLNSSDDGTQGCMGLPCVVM
# [3] = molecular target: GDP-bound HRAS wild-type protein (Homo sapiens, UniProt P01112); assay: Binding to HRAS by surface plasmon resonance (SPR), Single Cycle Kinetics; settings: SPR, GDP-bound HRAS wild-type protein vs GDP-bound KRAS wild-type protein
# GDP-bound HRAS wild-type protein, sequence (P01112 whole entry): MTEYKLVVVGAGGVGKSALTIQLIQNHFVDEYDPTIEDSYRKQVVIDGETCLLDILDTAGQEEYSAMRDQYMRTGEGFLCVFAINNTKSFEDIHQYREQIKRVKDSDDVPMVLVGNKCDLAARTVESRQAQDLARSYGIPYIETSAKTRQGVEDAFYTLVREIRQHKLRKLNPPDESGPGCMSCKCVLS
Compound,pKd [1],NRAS/KRAS (ratio of KD value for NRAS to KD value for KRAS) [2],HRAS/KRAS (ratio of KD value for HRAS to KD value for KRAS) [3]
CCO[C@@H]1C[C@H]2C(=O)NC3(CCC3)C(=O)N(C)[C@@H](C3CCCC3)C(=O)N(C)[C@H](C(=O)N(C)C)CC(=O)N(C)[C@@H](CC)C(=O)N[C@@H]([C@@H](C)CC)C(=O)N(C)CC(=O)N(C)[C@H]3CCCCN(C3=O)[C@@H](Cc3ccc(C(F)(F)F)cc3)C(=O)N(C)CC(=O)N[C@@H](CCc3ccc(C(F)(F)F)cc3F)C(=O)N2C1 [PP0885],10.01,C (A compound having a KD ratio of 0.1 or more and less than 3 is denoted as C),B (a compound having 3 or more and less than 10 is denoted as B)
CCO[C@@H]1C[C@H]2C(=O)NC3(CCC3)C(=O)N(C)[C@@H](C3CCCC3)C(=O)N(C)[C@H](C(=O)N(C)C)CC(=O)N(C)[C@@H](CC)C(=O)N[C@@H]([C@@H](C)CC)C(=O)N(C)CC(=O)N(C)[C@H]3CCCCN(C3=O)[C@@H](Cc3ccc(C(F)(F)F)cc3)C(=O)N(C)CC(=O)N[C@@H](CCc3c(F)c(F)c(C(F)(F)F)c(F)c3F)C(=O)N2C1 [PP0886],10.07,C (A compound having a KD ratio of 0.1 or more and less than 3 is denoted as C),B (a compound having 3 or more and less than 10 is denoted as B)
CCO[C@@H]1C[C@H]2C(=O)NC3(CCC3)C(=O)N(C)[C@@H](C3CCCC3)C(=O)N(C)[C@H](C(=O)N(C)C)CC(=O)N(C)[C@@H](CC)C(=O)N[C@@H]([C@@H](C)CC)C(=O)N(C)CC(=O)N(C)[C@H]3CCCCN(C3=O)[C@@H](Cc3ccc(C(F)(F)F)cc3)C(=O)N(C)CC(=O)N[C@@H](CCc3ccc4sccc4c3)C(=O)N2C1 [PP0887],10.03,C (A compound having a KD ratio of 0.1 or more and less than 3 is denoted as C),C (A compound having a KD ratio of 0.1 or more and less than 3 is denoted as C)
CCO[C@@H]1C[C@H]2C(=O)NC3(CCC3)C(=O)N(C)[C@@H](C3CCCC3)C(=O)N(C)[C@H](C(=O)N(C)C)CC(=O)N(C)[C@@H](CC)C(=O)N[C@@H]([C@@H](C)CC)C(=O)N(C)CC(=O)N(C)[C@H]3CCCCCN(C3=O)[C@@H](Cc3ccc(C(F)(F)F)cc3)C(=O)N(C)CC(=O)N[C@@H](CCc3c(F)c(F)c(C(F)(F)F)c(F)c3F)C(=O)N2C1 [PP0891],9.21,B (a compound having 3 or more and less than 10 is denoted as B),B (a compound having 3 or more and less than 10 is denoted as B)
CCCN1C(=O)CN(C)C(=O)CN(C)C(=O)[C@H]([C@@H](C)CC)NC(=O)[C@@H]2CCCCCOc3ccc(cc3)C[C@H]1C(=O)N(C)CC(=O)N[C@@H](CCc1cc(F)c(C(F)(F)F)c(F)c1)C(=O)N1C[C@H](OCC)C[C@H]1C(=O)NC1(CCCC1)C(=O)N(C)[C@@H](C1CCCC1)C(=O)N(C)[C@H](C(=O)N(C)C)CC(=O)N2C [PP0895],11.14,C (A compound having a KD ratio of 0.1 or more and less than 3 is denoted as C),C (A compound having a KD ratio of 0.1 or more and less than 3 is denoted as C)
CCCN1C(=O)CN(C)C(=O)CN(C)C(=O)[C@H]([C@@H](C)CC)NC(=O)[C@@H]2CCCCCCOc3ccc(cc3)C[C@H]1C(=O)N(C)CC(=O)N[C@@H](CCc1cc(F)c(C(F)(F)F)c(F)c1)C(=O)N1C[C@H](OCC)C[C@H]1C(=O)NC1(CCCC1)C(=O)N(C)[C@@H](C1CCCC1)C(=O)N(C)[C@H](C(=O)N(C)C)CC(=O)N2C [PP0896],10.74,C (A compound having a KD ratio of 0.1 or more and less than 3 is denoted as C),C (A compound having a KD ratio of 0.1 or more and less than 3 is denoted as C)
